Results: patent US20250353835A1, “N-TETRAZOLYL ARYL UREA-BASED DERIVATIVES, PREPARATION METHOD THEREFOR, AND USE THEREOF” (Hangzhou Yirui Pharmaceutical Technology Co., Ltd, priority 2022, published 2025)
Where two headings read alike, the source gives them in different places.

Legend:
human B1R = biological target: T1, human B1R (Homo sapiens, UniProt P46663); experiment: FLIPR calcium ion flux assay, inhibitory activity against human B1R; format: cell-based; conditions: HEK293 cells stably expressing human B1R; agonist [Lys-des-Arg9]-Bradykinin 4.6 nM (EC80); FLIPR method
T1 construct: host or cells: HEK293
T1 sequence (P46663 1-353): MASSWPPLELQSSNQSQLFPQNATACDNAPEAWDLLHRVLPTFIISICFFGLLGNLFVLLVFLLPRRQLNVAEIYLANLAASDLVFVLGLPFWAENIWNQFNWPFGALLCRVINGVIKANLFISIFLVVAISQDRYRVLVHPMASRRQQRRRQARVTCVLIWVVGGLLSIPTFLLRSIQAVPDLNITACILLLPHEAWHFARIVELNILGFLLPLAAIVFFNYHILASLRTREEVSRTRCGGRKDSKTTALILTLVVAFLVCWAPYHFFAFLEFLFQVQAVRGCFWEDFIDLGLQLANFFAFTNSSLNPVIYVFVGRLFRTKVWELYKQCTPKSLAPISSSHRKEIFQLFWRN
In short: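 HEK293 cells stably expressing human B1R, loaded with Fluo-4 Direct plus probenecid; compounds 9-point 1:5 series from 30 μM, duplicate, preincubated 10 min. Stimulation with [Lys-des-Arg9]-bradykinin at 4.6 nM final (EC80); peak fluorescence at 538 nm gave IC50.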

[1] = Intraocular and retinal drug concentration in rats after eye drops (HPLC); format: in vivo; conditions: both sexes, SD, rat, topical, 10 μL of 2% solution per eye, twice a day for 7 days, 2% eye drops twice a day; for concentration at 1 h after the second eye drop on Day 7: 1 h after administration
Source text: 2.1 Experimental aminals: SPF grade male SD rats, weighed 180-200 g, were used and adaptively fed for one week.
2.2 Drugs and reagents: Compound 71 and Compound 8; sodium chloride injection (Guangxi Yuyuan Pharmaceutical Co., Ltd.); sterile filter having 0.22 μm pore size (Millex).
2.3 Experimental animal grouping: the animals were randomly divided into 3 groups (6 rats per group) of a negative control group (normal saline), a Compound 71 group and a Compound 8 group.
2.4 Administration method and sampling: 2% Compound (10 μl) dissolved in normal saline (after filtration) was dropped into the surface of each rat's eye with a pipette for 10 s. The eye drop was applied twice a day for a total of 7 days. Samples were taken at 1 and 16 hours after the second administration on Day 7 of administration to determine the ocular distribution concentration of the drug.
(§1) The first batch of samples: 1 hour after the second eye drop on Day 7: 3 rats (2 males and 1 female) were taken from each group. The bulbus oculi were removed, and were thoroughly rinsed for 3 times with normal saline using a pipette. The washing solution was quickly dried with a qualitative filter paper. The cornea, vitreous body and retina were separated under a stereomicroscope, and frozen at −80° C. for subsequent measurement.
as §1, with “second” for “first”, “On the morning of Day 8, i.e., at 16 hours” for “1 hour”, “7: the remaining” for “7:”, “(1 male” for “(2 males”, “2 females)” for “1 female)”, “detection.” for “measurement.”
2.7.3 Results of HPLC measurement of drug content in eye tissue: Under the selected chromatographic conditions for analysis, drug impurities were well separated. The chromatograms for a sample of standard solution, a sample of blank homogenate, a sample of blank homogenate added with Compound 71 or Compound 8, and a sample of retinal homogenate samples were compared. […] Under the selected HPLC measurement conditions, the average recovery rates for two compounds under test were both above 90%. […] The precision can meet the measurement standard. As shown by the accuracy results, the accuracy for all of the high, medium and low concentration retinal spiked quality control samples (QC) within the drug curve range was higher than 95%.

[2] = cornea, read-out: Content of test compound in Cornea
[3] = cornea, 16 h after administration, read-out: Content of test compound in Cornea
[4] = retina, read-out: Content of test compound in Retina
[5] = retina, 16 h after administration, read-out: Content of test compound in Retina
[6] = vitreous body, read-out: Content of test compound in Vitreous body
[7] = vitreous body, 16 hours after administration, read-out: Content of test compound in Vitreous body

| IC50 (human B1R) | concentration at 1 h after the second eye drop on Day 7 [1, 2] | concentration at 16 h after the second eye drop on Day 7 [1, 3] | concentration at 1 h after the second eye drop on Day 7 [1, 4] | concentration at 16 h after the second eye drop on Day 7 [1, 5] | concentration at 1 h after the second eye drop on Day 7 [1, 6] | concentration at 16 h after the second eye drop on Day 7 [1, 7] | SMILES |
| --- | --- | --- | --- | --- | --- | --- | --- |
| 14.9 nM | 101000 ± 28200 ng/g | 40700 ± 18800 ng/g | 55000 ± 6910 ng/g | 15800 ± 8410 ng/g | 18200 ± 4650 ng/g | 10100 ± 2670 ng/g | CCOc1ccc(-c2c(F)cc(NC(=O)N3CCC(C(C)(C)C)CC3)cc2-c2nn[nH]n2)cn1 [Compound 8, 4-(tert-butyl)-N-(4-(6-ethoxypyrid-3-yl)-3-fluoro-5-(2H-tetrazol-5-yl)phenyl)piperidine-1-carboxamide] |
| 66.1 nM | 93100 ± 16900 ng/g | 43500 ± 6590 ng/g | 64800 ± 18300 ng/g | 6070 ± 3060 ng/g | 24200 ± 7070 ng/g | 12700 ± 3490 ng/g | CCOc1ccc(-c2ccc(NC(=O)N[C@H]3CC[C@H](C)CC3)cc2-c2nn[nH]n2)cn1 [Compound 71, 1-(4-(6-ethoxypyrid-3-yl)-3-(2H-tetrazol-5-yl)phenyl)-3-((trans)-4-methylcyclohexyl)urea] |
